31 compounds from patent US6544985B2, “Dihydro-benzo [b][1,4]diazepin-2-one derivatives” (Hoffman-La Roche Inc., priority 2001, dated 2003) can be followed below.

SMILES strings stand for the structures.

Turning to `CN(C)c1cc2c(cc1Cl)NC(=O)CC(c1cccc(-n3nncc3CN3CCC3)c1)=N2` [Example 48, 4-[3-(5-Azetidin-1-ylmethyl-[1,2,3]triazol-1-yl)-phenyl]-8-chloro-7-dimethylamino-1,3-dihydro-benzo[b][1,4]diazepin-2-one], the melting point was found to be 153 °C.

As for `CN(C)c1cc2c(cc1Cl)NC(=O)CC(c1cccc(-c3cc(CO)on3)c1)=N2` [Example 49, 8-Chloro-7-dimethylamino-4-[3-(5-hydroxymethyl-isoxazol-3-yl)-phenyl]-1,3-dihydro-benzo[b][1,4]diazepin-2-one], the melting point was 211 °C (dec.).

Turning to `O=C1CC(c2cccc(-n3nncc3CO)c2)=Nc2cc(N3CCCCC3)c(Cl)cc2N1` [Example 50, 8-Chloro-4-[3-(5-hydroxymethyl-[1,2,3]triazol-1-yl)-phenyl]-7-piperidin-1-yl-1,3-dihydro-benzo[b][1,4]diazepin-2-one], the melting point is 246 °C (dec.).

In the case of `CN(C)c1cc2c(cc1C(F)(F)F)NC(=O)CC(c1cccc(-c3cc(CO)on3)c1)=N2` [Example 51, 7-Dimethylamino-4-[3-(5-hydroxymethyl-isoxazol-3-yl)-phenyl]-8-trifluoromethyl-1,3-dihydro-benzo[b][1,4]diazepin-2-one], the melting point was 211 °C (dec.).

Turning to `CN(C)c1cc2c(cc1C(F)(F)F)NC(=O)CC(c1cccc(-c3cc(CN4CCCC4)no3)c1)=N2` [Example 53, 7-Dimethylamino-4-[3-(3-pyrrolidin-1-ylmethyl-isoxazol-5-yl)-phenyl]-8-trifluoromethyl-1,3-dihydro-benzo[b][1,4]diazepin-2-one], the melting point is 160 °C.

The compound `CN(C)Cc1cc(-c2cccc(C3=Nc4cc(N(C)C)c(C(F)(F)F)cc4NC(=O)C3)c2)on1` [Example 55, 7-Dimethylamino-4-[3-(3-dimethylaminomethyl-isoxazol-5-yl)-phenyl]-8-trifluoromethyl-1,3-dihydro-benzo[b][1,4]diazepin-2-one] registered a melting point of 160 °C.

In the case of `N#Cc1cc(C2=Nc3cc(N4CCCC4)c(F)cc3NC(=O)C2)ccn1` [Example 56, 4-(7-Fluoro-4-oxo-8-pyrrolidin-1-yl-4,5-dihydro-3H-benzo[b][1,4]diazepin-2-yl)-pyridine-2-carbonitrile], the melting point lay in the range of 278 to 279 °C.

With `Cc1cc(-c2cccc(C3=Nc4cc(N5CCCC5)c(F)cc4NC(=O)C3)c2)on1` [Example 57, 8-Fluoro-4-[3-(3-methyl-isoxazol-5-yl)-phenyl]-7-pyrrolidin-1-yl-1,3-dihydro-benzo[b][1,4]diazepin-2-one], the melting point was 236 °C.

Turning to `O=C1CC(c2cccc(-n3nncc3CO)c2)=Nc2cc(N3CCCC3)c(F)cc2N1` [Example 58, 8-Fluoro-4-[3-(5-hydroxymethyl-[1,2,3]triazol-1-yl)-phenyl]-7-pyrrolidin-1-yl-1,3-dihydro-benzo[b][1,4]diazepin-2-one], the melting point fell in the range of 184 to 185 °C.

On to `N#Cc1cc(C2=Nc3cc(N4CCC4)c(Cl)cc3NC(=O)C2)ccn1` [Example 59, 4-(8-Azetidin-1-yl-7-chloro-4-oxo-4,5-dihydro-3H-benzo[b][1,4]diazepin-2-yl)-pyridine-2-carbonitrile], for which the melting point worked out at 276 °C.

Take `O=C1CC(c2cccc(-c3cc(CO)on3)c2)=Nc2cc(N3CCCC3)c(C(F)(F)F)cc2N1` [Example 60, 4-[3-(5-Hydroxymethyl-isoxazol-3-yl)-phenyl]-7-pyrrolidin-1-yl-8-trifluoromethyl-1,3-dihydro-benzo[b][1,4]diazepin-2-one]: the melting point was 206 to 208 °C.

`N#Cc1cc(C2=Nc3cc(N4CCC4)c(C(F)(F)F)cc3NC(=O)C2)ccn1` [Example 61, 4-(8-Azetidin-1-yl-4-oxo-7-trifluoromethyl-4,5-dihydro-3H-benzo[b][1,4]diazepin-2-yl)-pyridine-2-carbonitrile] displayed a melting point of 241 °C.

`Cc1cc(-c2cccc(C3=Nc4cc(N5CCC5)c(C(F)(F)F)cc4NC(=O)C3)c2)on1` [Example 62, 7-Azetidin-1-yl-4-[3-(3-methyl-isoxazol-5-yl)-phenyl]-8-trifluoromethyl-1,3-dihydro-benzo[b][1,4]diazepin-2-one]: the melting point is 239 °C (dec.).

In the case of `O=C1CC(c2cccc(-n3nncc3CO)c2)=Nc2cc(N3CCC3)c(C(F)(F)F)cc2N1` [Example 63, 7-Azetidin-1-yl-4-[3-(5-hydroxymethyl-[1,2,3]triazol-1-yl)-phenyl]-8-trifluoromethyl-1,3-dihydro-benzo[b][1,4]diazepin-2-one], the melting point was 202 °C (dec.).

For the compound `CN(C)c1cc2c(cc1C(F)(F)F)NC(=O)CC(c1cccc(-n3cccn3)c1)=N2` [Example 64, 7-Dimethylamino-4-(3-pyrazol-1-yl-phenyl)-8-trifluoromethyl-1,3-dihydro-benzo[b][1,4]diazepin-2-one], the melting point came out at 176 °C.

In the case of `CN(C)c1cc2c(cc1C(F)(F)F)NC(=O)CC(c1cccc(-n3cnnc3)c1)=N2` [Example 65, 7-Dimethylamino-4-(3-[1,2,4]triazol-4-yl-phenyl)-8-trifluoromethyl-1,3-dihydro-benzo[b][1,4]diazepin-2-one], the melting point was 247 to 250 °C.

`CN(C)c1cc2c(cc1C(F)(F)F)NC(=O)CC(c1cccc(-n3ccnc3)c1)=N2` [Example 66, 7-Dimethylamino-4-(3-imidazol-1-yl-phenyl)-8-trifluoromethyl-1,3-dihydro-benzo[b][1,4]diazepin-2-one] showed a melting point of 203 to 205 °C.

The compound `CN(C)c1cc2c(cc1Cl)NC(=O)CC(c1cccc(-n3cc(CO)cn3)c1)=N2` [Example 67, 8-Chloro-7-dimethylamino-4-[3-(4-hydroxymethyl-pyrazol-1-yl)-phenyl]-1,3-dihydro-benzo[b][1,4]diazepin-2-one] had a melting point of 211 °C.

The compound `CN(C)c1cc2c(cc1C(F)(F)F)NC(=O)CC(c1cccc(-n3cc(CO)cn3)c1)=N2` [Example 68, 7-Dimethylamino-4-[3-(4-hydroxymethyl-pyrazol-1-yl)-phenyl]-8-trifluoromethyl-1,3-dihydro-benzo[b][1,4]diazepin-2-one] showed a melting point of 175 °C.

Compound `Cc1noc(-c2cccc(C3=Nc4cc(N(C)C)c(C(F)(F)F)cc4NC(=O)C3)c2)c1CO` [Example 69, 7-Dimethylamino-4-[3-(4-hydroxymethyl-3-methyl-isoxazol-5-yl)-phenyl]-8-trifluoromethyl-1,3-dihydro-benzo[b][1,4]diazepin-2-one] gave a melting point of 207 to 208 °C.

In turn, `CN(C)c1cc2c(cc1C(F)(F)F)NC(=O)CC(c1cccc(-c3nocc3CO)c1)=N2` [Example 70, 7-Dimethylamino-4-[3-(4-hydroxymethyl-isoxazol-3-yl)-phenyl]-8-trifluoromethyl-1,3-dihydro-benzo[b][1,4]diazepin-2-one] had a melting point of 217 to 219 °C.

Consider `CN(C)c1cc2c(cc1C(F)(F)F)NC(=O)CC(c1cccc(-c3c(CO)cnn3C)c1)=N2` [Example 72, 7-Dimethylamino-4-[3-(4-hydroxymethyl-2-methyl-2H-pyrazol-3-yl)-phenyl]-8-trifluoromethyl-1,3-dihydro-benzo[b][1,4]diazepin-2-one], for which the melting point fell in the range of 243 to 244 °C.

The compound `CN(C)c1cc2c(cc1Cl)NC(=O)CC(c1cccc(-n3cncn3)c1)=N2` [Example 73, 8-Chloro-7-dimethylamino-4-(3-[1,2,4]triazol-1-yl-phenyl)-1,3-dihydro-benzo[b][1,4]diazepin-2-one] displayed a melting point of 239 to 241 °C.

Compound `CN(C)c1cc2c(cc1C(F)(F)F)NC(=O)CC(c1cccc(-n3cncn3)c1)=N2` [Example 74, 7-Dimethylamino-4-(3-[1,2,4]triazol-1-yl-phenyl)-8-trifluoromethyl-1,3-dihydro-benzo[b][1,4]diazepin-2-one] came in with a melting point of 228 to 230 °C.

`CN(C)c1cc2c(cc1C(F)(F)F)NC(=O)CC(c1cccc(C#N)c1)=N2` [Example 75, 3-(8-Dimethylamino-4-oxo-7-trifluoromethyl-4,5-dihydro-3H-benzo[b][1,4]diazepin-2-yl)-benzonitrile] registered a melting point of 224 to 227 °C.

In turn, `CN(C)c1cc2c(cc1C(F)(F)F)NC(=O)CC(c1cccc(-n3nncc3CNCC(F)(F)F)c1)=N2` [Example 76, 7-Dimethylamino-4-(3-{5-[(2,2,2-trifluoro-ethylamino)methyl]-[1,2,3]triazol-1-yl}-phenyl)8-trifluoromethyl-1,3-dihydro-benzo[b][1,4]diazepin-2-one] returned a melting point of 168 to 170 °C.

With `CN(CC1CC1)c1cc2c(cc1C(F)(F)F)NC(=O)CC(c1cccc(-n3nncc3CO)c1)=N2` [Example 77, 7-(Cyclopropylmethyl-methyl-amino)-4-[3-(5-hydroxymethyl-[1,2,3]triazol-1-yl)-phenyl]-8-trifluoromethyl-1,3-dihydro-benzo[b][1,4]diazepin-2-one], the melting point was 212 °C.

`CN(C)c1cc2c(cc1C(F)(F)F)NC(=O)CC(c1cccc(-n3cc(CNC4CC4)cn3)c1)=N2` [Example 79, 4-[3-(4-Cyclopropylaminomethyl-pyrazol-1-yl)-phenyl]-7-dimethylamino-8-trifluoromethyl-1,3-dihydro-benzo[b][1,4]diazepin-2-one] returned a melting point of 135 °C.

With `CN(CC1CC1)c1cc2c(cc1C(F)(F)F)NC(=O)CC(c1cccc(-n3nncc3CNC3CC3)c1)=N2` [Example 80, 4-[3-(5-Cyclopropylaminomethyl-[1,2,3]triazol-1-yl)-phenyl]-7-(cyclopropylmethyl-methyl-amino)-8-trifluoromethyl-1,3-dihydro-benzo[b][1,4]diazepin-2-one], the melting point is 35 to 46 °C.

Turning to `CN(C)c1cc2c(cc1C(F)(F)F)NC(=O)CC(c1cccc(-c3ccnn3CCO)c1)=N2` [Example 81, 7-Dimethylamino-4-{3-[2-(2-hydroxy-ethyl)-2H-pyrazol-3-yl]-phenyl}-8-trifluoromethyl-1,3-dihydro-benzo[b][1,4]diazepin-2-one], the melting point was found to be 138 °C.

In turn, `CN(c1cc2c(cc1C(F)(F)F)NC(=O)CC(c1ccnc(C#N)c1)=N2)C1CC1` [Example 83, 4-[8-(Cyclopropyl-methyl-amino)-4-oxo-7-trifluoromethyl-4,5-dihydro-3H-benzo[b][1,4]diazepin-2-yl]-pyridine-2-carbonitrile] showed a melting point of 200 to 205 °C.

What is called melting point is the temperature, or range, at which the solid turns liquid.
